Values quoted from earlier work in patent publication US10155751B2, “Pyrazolyl-substituted heteroaryls and their use as medicaments” (Boehringer Ingelheim International GmbH, priority 2015, dated 2018).

Legend:
[1] = system: platelet counts in patients with ITP; conditions: Podolanczuk et al, Blood (2009); cited from earlier work
Aurora B (AURB) = Aurora B (AURB) (Homo sapiens (Human), UniProt Q96GD4); conditions: Thoma et al, Bioorganic & Medicinal Chemistry Letters (2015); cited from earlier work
Sequence of Aurora B (AURB) (Q96GD4 whole entry): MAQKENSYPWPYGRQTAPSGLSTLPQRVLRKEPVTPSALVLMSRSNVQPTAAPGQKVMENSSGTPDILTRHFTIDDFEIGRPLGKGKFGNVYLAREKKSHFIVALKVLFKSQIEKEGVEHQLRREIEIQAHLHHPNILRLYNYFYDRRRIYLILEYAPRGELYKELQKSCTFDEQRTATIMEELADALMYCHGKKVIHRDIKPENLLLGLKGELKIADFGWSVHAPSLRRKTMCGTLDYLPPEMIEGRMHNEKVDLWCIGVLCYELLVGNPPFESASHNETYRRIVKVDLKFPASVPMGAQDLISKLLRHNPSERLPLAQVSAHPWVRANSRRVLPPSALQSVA

SMILES	platelet counts [1]	inhibition of Aurora B (AURB) (Aurora B (AURB))
COc1cc(Nc2ncc(F)c(Nc3ccc4c(n3)N(COP(=O)(O)O)C(=O)C(C)(C)O4)n2)cc(OC)c1OC [Example R788]	improved platelet counts	
C[C@@H](Oc1cc(-c2cnn(C3CC3)c2)cc2nn(C)c(F)c12)[C@H]1CNC(=O)C1 [compound No. 5]		inhibited Aurora B
